Measurements from patent US8594942B2, “Computational method and system for identifying network patterns in complex biological systems data” (Metabolon, Inc., priority 2004, dated 2013).
“Also recorded” adds a separate entry of the source.

Legend:
[1] = tested on: Male Fischer 344 rats; test: Acetaminophen-induced liver toxicity study: biochemical profiling (LC-MS) of rat liver; assay type: in vivo; settings: rat liver metabolite, single dose p.o.
Method: An acetaminophen-induced liver toxicity study was performed as follows. Male Fischer 344 rats were administered a single dose of acetaminophen (APAP) at 0, 50, 150, 1500 or 2000 mg/kg p.o. (6 rats per group). The 150 mg/kg dose is equivalent to a low overdose level in humans (˜10 g) and 1500 mg/kg is a low toxic dose in rats. The rats were sacrificed at 6, 18, 24, and 48 hr post dosing. Livers of the rats were processed for biochemical profiling, histopathology and gene expression analysis. For the 0, 50 and 1500 mg/kg dose groups, rat urine was collected at −24-0, 0-6, 6-24, and 24-48 hr relative to dosing. Similarly, rat serum was collected at 48 hr for the 0, 50 and 1500 mg/kg groups.
Rat tissue was prepared for LC-MS analysis as follows. Rat liver tissue samples were frozen upon collection. A slice of each frozen sample was placed into a mortar, covered with liquid nitrogen, and ground with a pestle. 100 mg of ground sample was placed in a cryovial, extraction fluid and beads were added, and the sample was further ground and then centrifuged. The supernatant was transferred to a clean cryovial, centrifuged again, and then transferred to a well of a 96-well plate.
LC-MS analysis of the rat tissue and biofluid samples was performed on an Applied Biosystems Mariner liquid chromatograph coupled with a time of flight mass spectrometer (LC-TOF). The mass resolution for the mass spectrometer employed in this experiment was 0.200 amu. One LC was employed with a splitter that allowed for the eluent to be delivered to two TOF MS instruments, one operating in positive ionization mode, the other in negative ionization mode. Compounds detected by LC-MS with an electrospray ion source were cataloged based on retention times and mass-to-charge ratio (m/z) of the ions characteristic of each peak. Mass spectrometric data were collected from 80-900 amu. Raw LC-MS data were processed using the commercially available software TARGETDB (Thru-Put Systems, Inc., Orlando, Fla.).
A targeted list of relative responses for peaks and peaks annotated as known compounds was produced from the LC/MS data for the rat liver samples described in Example 1 and is illustrated in FIG. 1. The resulting biochemical profiling data was subjected to Principal Component Analysis (PCA), showing trends over both dose and time (see FIG. 2). The third principal component (x-axis) is plotted against the second principal component (y-axis) for each of the 6, 18, 24 and 48 hr time points for acetaminophen doses 150 mg/kg (yellow), 1500 mg/kg (black), and 2000 mg/kg (green). Each data point represents the average for six animals.
Mathematical models of the trends observed in the PCA plot were developed. […] Trend 1 is a trend of increasing distance from control as the dose increases at any given time point. Trend 2 is a trend of change from one time point to the next that is in the same direction and of increasing magnitude as dose increases. Each of the relative response peaks in the liver biochemical profiling dataset was tested for adherence to the mathematical models to locate the subset of peaks that followed the observed trends. The peaks that adhered to the models were identified as the subset of most interest for further analysis of acetaminophen-induced liver changes. To further investigate the mode of action of acetaminophen, the known compounds in the identified subset were further analyzed using the methods and systems of the present invention.
Using the methods and systems of the present invention, another graph was generated depicting the 15 components of interest, from Example 3 above, that were closely related enough to fit on a single graph. […] It should be noted that not only is the perturbation of the 15 compounds of interest depicted in FIG. 5, but the experimental result from any compound measured and depicted in the network of FIG. 5 is shown. […]

[2] = tested on: rats; settings: cited from earlier work

With `CC(=O)Nc1ccc(O)cc1` [acetaminophen] the “Status of L-asparagine” value ([1]; FIG. 5 network component 2) was “Down Regulated”, the “Status of ‘N’-acetyl-“b”-D-glucosamine” value ([1]; FIG. 5 network component 7) was “Down Regulated” and the “Status of “a”-ketoglutarate” value ([1]; FIG. 5 network component 8) was “Down Regulated”. The “Status of L-glutamine” value ([1]; FIG. 5 network component 10) was “Down Regulated”, the “Status of L-arginine” value ([1]; FIG. 5 network component 14) was “didn't undergo a significant change; also recorded: No Significant Change” and the “Status of L-cystathionine” value ([1]; FIG. 5 network component 17) was “Down Regulated”. The “Status of “a”-hetobutyrate” value ([1]; FIG. 5 network component 18) was “Down Regulated”, the “Status of L-cysteine” value ([1]; FIG. 5 network component 19) was “Down Regulated” and the “Status of L-serine” value ([1]; FIG. 5 network component 21) was “Down Regulated”. The “Status of “o”-phosphoethanolamine” value ([1]; FIG. 5 network component 23) was “Up Regulated”, the “Status of (‘S)-lactate” value ([1]; FIG. 5 network component 25) was “Down Regulated” and the “Status of Pyruvate” value ([1]; FIG. 5 network component 26) was “Down Regulated”. The “Status of Phospho‘enol’pyruvate” value ([1]; FIG. 5 network component 29) was “No Significant Change”, the “Status of GTP” value ([1]; FIG. 5 network component 30) was “Down Regulated” and the “Status of GDP” value ([1]; FIG. 5 network component 31) was “didn't undergo a significant change; also recorded: No Significant Change”. For the same compound, the “Status of Phenylpyruvate” value ([1]; FIG. 5 network component 32) was “Up Regulated”, the “Status of L-phenylalanine” value ([1]; FIG. 5 network component 33) was “Down Regulated” and the “Status of L-tyrosine” value ([1]; FIG. 5 network component 34) was “Down Regulated”. The “Status of L-dopa” value ([1]; FIG. 5 network component 35) was “Down Regulated”, the Status of glutathione ([1]; FIG. 5 network component 37) was “Up Regulated” and the “low toxic dose in rats” value [2] was 1500 mg/kg.
